In US10047051B2, “Substituted pyridines and method of use” (AbbVie S.á{acute over (.)}r.l., priority 2015, dated 2018):

Key:
Type in all cases: cell-based
[1] = target: T1, CFTR G551D/ΔF508 (Homo sapiens, UniProt P13569, G551D); assay: TECC assay, primary bronchial epithelial cells, CFTR G551D/ΔF508; details: primary bronchial epithelial cells heterozygous G551D/ΔF508, acute mode, increase in Isc after forskolin
T1 construct: host or cells: primary human bronchial epithelial cells from CF patients heterozygous G551D/ΔF508, no corrector pre-treatment
Description: (§1) The TECC (Tranepithelial Clamp Circuit, EP-design) assay measures the functionality of the cystic fibrosis Transmembrane Conductance regulator (CFTR) by measuring the short circuit current (Isc) generated over the basolateral and apical membrane of lung epithelial cells. In TECC the transepithelial potential PD and transepithelial resistance (Rt) are measured in an open circuit and transformed to Isc using Ohm's law. 24 Wells can be measured simultaneously allowing a higher throughput compared to Ussing chambers.
(§2) For this purpose, bronchial epithelial cells isolated from CF patients homozygous for the CFTR ΔF508 mutation (hAEC-CF, Epithelix) are plated on type IV collagen-coated Transwell® supports (Costar). Human airway epithelia are generated by provision of an air-liquid interface for 21 days to form well-differentiated polarized cultures that resemble in vivo pseudo-stratified ciliated epithelium (Fulcher, M. L., Gabriel, S., Burns, K. A., Yankaskas, J. R., Randell, S. H., 2005. Well-differentiated human airway epithelial cell cultures. Methods Mol. Med. 107, 183-206). In the case of the homozygous ΔF508 CFTR samples, the differentiated cells are treated with 3 μM VX809 (2626 South Loop West, Suite 225, Houston, Tex. 77054 USA, Cat n# S1565) to allow sufficient expression of properly folded CFTR protein on the membrane (48 hours basolateral treatment and 24 hours apical treatment), prior to electrophysiological recordings. For heterozygous G551D/ΔF508, differentiated cells are used as such for the recordings.
(§3) Information on the compounds can be retrieved on the homozygous ΔF508 CFTR samples looking at increased CFTR activity when compounds are added in an acute mode or in a chronic mode. On G551D/ΔF508 CFTR heterozygous samples compounds are added in an acute mode to the differentiated cells.
(§4) For the acute mode, for electrophysiological recording, the human airway epithelia are mounted in the TECC heating plate for electrophysiological measurement and kept at 37° C. The epithelia are bathed in a NaCl-Ringer solution (120 mM NaCl, 25 mM NaHCO3, 1.2 mM CaCl2, 1.2 mM MgCl2, 0.8 mM KH2PO4, 0.8 mM K2HPO4, pH 7.4, 5 mM glucose) on both the basolateral and apical sides. Apical amiloride is used to inhibit the endogenous ENaC currents while forkolin is applied on both apical and basolateral side to stimulate CFTR. After forskolin triggering, compounds are added on both sides to test their potential for increasing CFTR gating. Measurements are done during a 20 minute timeframe with recordings every 2 minutes. The increase in Isc is used as a measure for the increased CFTR activity, EC50 values can be generated by measuring impact of different concentrations of compound on Isc on primary cells, for this purpose each transwell is treated with a different compound concentration. Inh-172, an inhibitor specific for CFTR, is used to test the specificity of the tested compounds.
When subjected to this protocol, the following values were obtained. The difference between ΔIsc measured as DMSO (baseline), and the ΔIsc measured with the compound tested.

[2] = target: T2, CFTR ΔF508 mutant (Homo sapiens, UniProt P13569, DEL508-508); assay: YFP-halide influx assay for the CFTR-ΔF508 mutation (CFBE41o- cells); details: forskolin 10.67 μM; for EC50: from (1−F/F0) vs concentration plot
T2 construct: expressed in transfected cells; host or cells: CFBE41o- cells, adenoviral transduction
How it was run: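 EC50 derived from plotting 1−F/F0 (fluorescence 36 s after iodide injection over pre-injection value) against compound concentration. Cells: CFBE41o- transduced with ΔF508-CFTR and YFP quench reporter, corrected 24 h at 27° C or by a CFTR modulator at 37° C.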

[3] = target: T3, CFTR ΔF508 (Homo sapiens, UniProt P13569, DEL508-508); assay: TECC assay, primary bronchial epithelial cells, CFTR ΔF508; details: primary bronchial epithelial cells of CF patients homozygous for CFTR ΔF508, treated with 3 μM VX809, increase in Isc after forskolin
T3 construct: host or cells: primary human bronchial epithelial cells from CF patients homozygous for ΔF508, pre-treated with VX809
Description: as §1, §2, §3, §4
For the chronic mode, the differentiated cells are treated with 3 μM VX809 (2626 South Loop West, Suite 225, Houston, Tex. 77054 USA, Cat n# S1565) and potentiator compounds at different concentrations (48 hours basolateral treatment and 24 hours apical treatment), prior to electrophysiological recordings. For electrophysiological recording, the human airway epithelia are mounted in the TECC heating plate for electrophysiological measurement and kept at 37° C. The epithelia are bathed in a NaCl-Ringer solution (120 mM NaCl, 25 mM NaHCO3, 1.2 mM CaCl2, 1.2 mM MgCl2, 0.8 mM KH2PO4, 0.8 mM K2HPO4, pH 7.4, 5 mM glucose) on both the basolateral and apical sides. Apical amiloride is used to inhibit the endogenous ENaC currents while forkolin is applied on both apical and basolateral side to stimulate CFTR. Measurements are done during a 20 minute timeframe with recordings every 2 minutes. […]

[4] = target: T4, CFTR G551D mutant (Homo sapiens, UniProt P13569, G551D); assay: YFP-halide influx assay for the CFTR-G551D mutation (HEK293 cells); details: forskolin 10.67 μM
T4 construct: expressed in transfected cells; host or cells: HEK293 cells, reverse transfection with plasmids
How it was run: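 Channel opening read as I⁻-driven quenching of a YFP H148Q/I152L/F47L reporter over 7 s post-injection, expressed as 1−F/F0 and fitted against concentration for EC50. Cells were HEK293 co-transfected at seeding with G551D CFTR plus reporter, then grown 24 h at 37 °C, 5% CO2.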

[5] = target: T5, CFTR-S549N (Homo sapiens, UniProt P13569, S549N); assay: YFP-halide influx assay for the CFTR-S549N; parameters: % Activation: concentration or dose not given beside the values
T5 construct: expressed in transfected cells
How it was run: (§5)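 HEK293 cells reverse-transfected with a CFTR mutant and YFP H148Q/I152L/F47L halide sensor, expressed 24 h at 37° C. Fluorescence quenching followed for 7 s after I⁻ injection; activity expressed as 1−F/F0, with EC50 fitted from 1−F/F0 versus compound concentration.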

[6] = target: T6, CFTR-G178R (Homo sapiens, UniProt P13569, G178R); assay: YFP-halide influx assay for the CFTR-G178R
T6 construct: expressed in transfected cells
How it was run: as §5

[7] = target: T7, CFTR-G1349D (Homo sapiens, UniProt P13569, G1349D); assay: YFP-halide influx assay for the CFTR-G1349D
T7 construct: expressed in transfected cells
How it was run: as §5

[8] = target: T8, CFTR-R117H (Homo sapiens, UniProt P13569, R117H); assay: YFP-halide influx assay for the CFTR-R117H
T8 construct: expressed in transfected cells
How it was run: as §5

T4 sequence (P13569 whole entry G551D): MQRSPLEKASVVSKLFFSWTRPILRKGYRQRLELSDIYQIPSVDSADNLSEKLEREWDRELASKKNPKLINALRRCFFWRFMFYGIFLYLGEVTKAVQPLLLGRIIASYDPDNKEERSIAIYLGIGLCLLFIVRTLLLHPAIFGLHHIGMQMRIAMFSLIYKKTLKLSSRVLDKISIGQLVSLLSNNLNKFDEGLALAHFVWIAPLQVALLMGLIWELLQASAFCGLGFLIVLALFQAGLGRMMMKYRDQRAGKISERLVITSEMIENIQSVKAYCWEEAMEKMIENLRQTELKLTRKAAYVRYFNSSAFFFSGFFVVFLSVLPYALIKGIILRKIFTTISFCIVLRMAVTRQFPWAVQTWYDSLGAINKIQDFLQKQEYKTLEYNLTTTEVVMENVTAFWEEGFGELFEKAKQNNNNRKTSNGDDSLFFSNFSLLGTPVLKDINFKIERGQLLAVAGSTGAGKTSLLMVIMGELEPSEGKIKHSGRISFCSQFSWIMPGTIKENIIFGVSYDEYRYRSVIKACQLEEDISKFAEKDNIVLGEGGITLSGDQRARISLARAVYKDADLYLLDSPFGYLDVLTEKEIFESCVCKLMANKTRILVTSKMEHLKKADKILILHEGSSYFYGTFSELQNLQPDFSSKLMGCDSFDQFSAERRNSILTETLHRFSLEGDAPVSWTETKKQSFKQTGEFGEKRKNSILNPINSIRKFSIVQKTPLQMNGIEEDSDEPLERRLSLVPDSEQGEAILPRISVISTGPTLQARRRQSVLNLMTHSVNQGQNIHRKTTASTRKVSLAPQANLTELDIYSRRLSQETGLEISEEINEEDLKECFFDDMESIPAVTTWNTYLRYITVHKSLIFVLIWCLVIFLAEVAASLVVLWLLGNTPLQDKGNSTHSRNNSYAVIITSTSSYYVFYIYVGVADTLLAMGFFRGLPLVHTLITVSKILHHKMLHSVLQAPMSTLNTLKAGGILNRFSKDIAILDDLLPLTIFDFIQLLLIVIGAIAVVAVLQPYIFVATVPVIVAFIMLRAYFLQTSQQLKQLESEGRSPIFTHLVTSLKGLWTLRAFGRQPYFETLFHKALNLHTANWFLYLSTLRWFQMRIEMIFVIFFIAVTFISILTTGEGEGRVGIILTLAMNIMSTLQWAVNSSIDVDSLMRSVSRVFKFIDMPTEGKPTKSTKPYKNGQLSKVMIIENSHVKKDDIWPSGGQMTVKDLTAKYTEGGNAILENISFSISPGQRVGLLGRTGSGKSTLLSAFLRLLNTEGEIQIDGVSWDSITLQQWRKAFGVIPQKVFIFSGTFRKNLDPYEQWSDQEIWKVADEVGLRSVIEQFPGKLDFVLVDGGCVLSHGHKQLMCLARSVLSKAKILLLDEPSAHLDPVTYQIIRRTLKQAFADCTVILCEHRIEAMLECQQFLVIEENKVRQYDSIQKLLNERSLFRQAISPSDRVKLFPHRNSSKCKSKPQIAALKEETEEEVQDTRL
T7 sequence (P13569 whole entry G1349D): as the sequence (P13569 whole entry G551D) above, with D551G, G1349D counted along it
T6 sequence (P13569 whole entry G178R): as the sequence (P13569 whole entry G551D) above, with G178R, D551G counted along it
T2 sequence (P13569 with tags, fused parts or gaps DEL508-508): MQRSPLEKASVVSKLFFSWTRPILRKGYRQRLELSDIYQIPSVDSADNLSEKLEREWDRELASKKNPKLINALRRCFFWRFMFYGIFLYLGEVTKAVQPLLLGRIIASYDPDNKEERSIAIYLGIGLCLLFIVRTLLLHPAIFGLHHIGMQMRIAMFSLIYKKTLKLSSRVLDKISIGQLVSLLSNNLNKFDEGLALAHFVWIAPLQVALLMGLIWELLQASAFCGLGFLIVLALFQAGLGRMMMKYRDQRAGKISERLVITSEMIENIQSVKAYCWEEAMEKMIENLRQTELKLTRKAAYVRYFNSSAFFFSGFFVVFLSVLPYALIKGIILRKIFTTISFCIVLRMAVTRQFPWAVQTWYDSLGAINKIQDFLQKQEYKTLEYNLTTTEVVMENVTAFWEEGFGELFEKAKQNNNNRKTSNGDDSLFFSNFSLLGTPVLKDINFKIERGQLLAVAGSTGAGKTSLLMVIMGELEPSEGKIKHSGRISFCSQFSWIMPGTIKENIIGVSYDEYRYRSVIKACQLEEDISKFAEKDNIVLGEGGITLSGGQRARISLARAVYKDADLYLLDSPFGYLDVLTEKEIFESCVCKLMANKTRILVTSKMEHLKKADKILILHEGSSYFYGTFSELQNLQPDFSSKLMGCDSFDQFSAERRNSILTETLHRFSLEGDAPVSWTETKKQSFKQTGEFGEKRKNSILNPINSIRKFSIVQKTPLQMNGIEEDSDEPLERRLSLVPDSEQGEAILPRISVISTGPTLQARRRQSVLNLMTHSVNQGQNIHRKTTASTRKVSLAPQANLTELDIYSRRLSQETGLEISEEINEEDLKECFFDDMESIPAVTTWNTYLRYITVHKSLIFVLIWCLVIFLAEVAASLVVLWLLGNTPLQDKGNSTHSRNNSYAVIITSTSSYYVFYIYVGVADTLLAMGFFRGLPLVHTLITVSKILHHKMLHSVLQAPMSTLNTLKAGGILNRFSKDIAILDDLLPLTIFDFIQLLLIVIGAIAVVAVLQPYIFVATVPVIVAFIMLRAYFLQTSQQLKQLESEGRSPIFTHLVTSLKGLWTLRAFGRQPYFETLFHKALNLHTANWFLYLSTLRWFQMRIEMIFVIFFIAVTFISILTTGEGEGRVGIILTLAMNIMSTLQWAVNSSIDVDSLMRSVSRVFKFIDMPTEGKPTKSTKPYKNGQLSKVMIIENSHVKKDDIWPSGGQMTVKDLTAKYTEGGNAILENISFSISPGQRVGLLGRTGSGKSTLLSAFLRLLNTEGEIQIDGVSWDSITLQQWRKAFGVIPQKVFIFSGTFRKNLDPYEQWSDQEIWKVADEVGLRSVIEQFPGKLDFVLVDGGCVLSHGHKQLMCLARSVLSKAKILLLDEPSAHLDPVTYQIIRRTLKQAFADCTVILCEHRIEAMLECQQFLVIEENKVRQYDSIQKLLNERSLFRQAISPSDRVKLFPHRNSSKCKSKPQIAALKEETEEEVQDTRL
T5 sequence (P13569 whole entry S549N): as the sequence (P13569 whole entry G551D) above, with S549N, D551G counted along it
T8 sequence (P13569 whole entry R117H): as the sequence (P13569 whole entry G551D) above, with R117H, D551G counted along it
T1 sequence (P13569 whole entry F508del/G551D): as the sequence (P13569 with tags, fused parts or gaps DEL508-508) above, with G550D counted along it
T3 sequence (P13569 with tags, fused parts or gaps DEL508-508): as the sequence (P13569 with tags, fused parts or gaps DEL508-508) above

| Compound | EC50 [1] [nM] | % Activation [2] [%] | EC50 [2] [nM] | EC50 [3] [nM] | % Activation [4] [%] | EC50 [4] [nM] | % Activation [5] [%] | EC50 [5] [nM] | % Activation [6] [%] | EC50 [6] [nM] | % Activation [7] [%] | EC50 [7] [nM] | % Activation [8] [%] | EC50 [8] [nM] |
| --- | --- | --- | --- | --- | --- | --- | --- | --- | --- | --- | --- | --- | --- | --- |
| Nc1cc(S(=O)(=O)c2ccccc2OC(F)(F)F)cnc1C(=O)N1CC(O)(C(F)(F)F)C1 [Compound 85, (3-amino-5-{[2-(trifluoromethoxy)phenyl]sulfonyl}pyridin-2-yl)[3-hydroxy-3-(trifluoromethyl)azetidin-1-yl]methanone] | 9.5 | 110.5 | 1 |  | 51.7 | 28.9 | 104.8 | 3.29 | 77.69 | 3.29 | 90.89 | 2.73 | 103 | 3.83 |
| Nc1cc(S(=O)(=O)c2ccc(OC(F)(F)F)cc2)cnc1C(=O)NCC1CCCO1 (centres unmarked) [Compound 7, 3-amino-N-(tetrahydrofuran-2-ylmethyl)-5-{[4-(trifluoromethoxy)phenyl]sulfonyl}pyridine-2-carboxamide] | 7720 | 103.5 | 69.1 |  | 73.5 | 723 |  |  |  |  | 63.0 | 549 | 82.7 | 479 |
| CC(C)OCC(O)CNC(=O)c1ncc(S(=O)(=O)c2ccc(C(F)(F)F)cc2)cc1N (centres unmarked) [Compound 92, 3-amino-N-[2-hydroxy-3-(propan-2-yloxy)propyl]-5-{[4-(trifluoromethyl)phenyl]sulfonyl}pyridine-2-carboxamide] | 144 | 118.5 | 7.2 |  | 79.0 | 210 | 98.96 | 131 | 104.9 | 145 | 91.24 | 30.6 | 94.77 | 97.7 |

Further lines, results first:

| EC50 [1] [nM] | % Activation [2] [%] | EC50 [2] [nM] | EC50 [3] [nM] | % Activation [4] [%] | EC50 [4] [nM] | % Activation [5] [%] | EC50 [5] [nM] | % Activation [6] [%] | EC50 [6] [nM] | % Activation [7] [%] | EC50 [7] [nM] | % Activation [8] [%] | EC50 [8] [nM] | Compound |
| --- | --- | --- | --- | --- | --- | --- | --- | --- | --- | --- | --- | --- | --- | --- |
| 461 | 96.6 | 8 | 38.3 | 48.8 | 458 |  |  |  |  |  |  |  |  | Nc1cc(S(=O)(=O)c2ccc(OC(F)(F)F)cc2)cnc1C(=O)NCCC(O)C(F)(F)F (centres unmarked) [Compound 52, 3-amino-N-(4,4,4-trifluoro-3-hydroxybutyl)-5-{[4-(trifluoromethoxy)phenyl]sulfonyl}pyridine-2-carboxamide] |
| 487 | 104.0 | 5.7 |  | 54.2 | 300 | 65.61 | 86.4 | 80.8 | 226 | 71.97 | 75.4 | 88.62 | 138 | Nc1cc(S(=O)(=O)N2CCC(C(F)(F)F)CC2)cnc1C(=O)NCC(O)C(F)(F)F (centres unmarked) [Compound 95, 3-amino-N-(3,3,3-trifluoro-2-hydroxypropyl)-5-{[4-(trifluoromethyl)piperidin-1-yl]sulfonyl}pyridine-2-carboxamide] |
| 358 | 109.5 | 7.6 |  | 91.7 | 796 |  |  |  |  |  |  |  |  | COC[C@H](O)CNC(=O)c1ncc(S(=O)(=O)c2ccc(C(F)(F)F)cc2F)cc1N [Compound 99, 3-amino-5-{[2-fluoro-4-(trifluoromethyl)phenyl]sulfonyl}-N-[(2R)-2-hydroxy-3-methoxypropyl]pyridine-2-carboxamide] |
